According to ChEMBL document CHEMBL1140791, “Design and identification of selective HER-2 sheddase inhibitors via P1' manipulation and unconventional P2' perturbations to induce a molecular metamorphosis” (Bioorg Med Chem Lett, 2008):
Activity calls are given as the source filed them. No cut-off for these calls is given here.

Legend:
[1] = biological target: T1, Disintegrin and metalloproteinase domain-containing protein 10 (Homo sapiens, UniProt O14672); experiment: (§1) Inhibition of HER2 sheddase in BT474 cells by extracellular domain shedding assay; type: cell-based, BT-474
T1 sequence (O14672 whole entry): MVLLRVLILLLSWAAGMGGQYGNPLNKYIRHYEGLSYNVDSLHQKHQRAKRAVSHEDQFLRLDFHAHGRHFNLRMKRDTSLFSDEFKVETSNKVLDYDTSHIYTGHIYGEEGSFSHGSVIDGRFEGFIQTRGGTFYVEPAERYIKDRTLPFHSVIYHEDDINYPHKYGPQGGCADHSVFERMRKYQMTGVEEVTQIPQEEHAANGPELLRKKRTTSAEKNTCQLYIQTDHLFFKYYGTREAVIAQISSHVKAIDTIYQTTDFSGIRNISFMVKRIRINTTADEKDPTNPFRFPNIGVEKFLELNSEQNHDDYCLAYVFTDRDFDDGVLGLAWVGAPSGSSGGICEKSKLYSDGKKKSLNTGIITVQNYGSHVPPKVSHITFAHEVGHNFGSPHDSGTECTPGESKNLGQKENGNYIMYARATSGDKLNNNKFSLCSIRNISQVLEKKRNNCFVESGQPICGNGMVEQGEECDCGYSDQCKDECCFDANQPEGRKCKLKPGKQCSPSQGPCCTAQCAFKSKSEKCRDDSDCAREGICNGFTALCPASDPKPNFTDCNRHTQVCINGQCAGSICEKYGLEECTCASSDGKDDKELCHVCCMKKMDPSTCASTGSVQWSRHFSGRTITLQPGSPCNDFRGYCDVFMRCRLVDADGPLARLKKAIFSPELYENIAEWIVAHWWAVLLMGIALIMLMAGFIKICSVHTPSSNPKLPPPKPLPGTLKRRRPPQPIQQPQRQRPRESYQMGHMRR

[2] = biological target: T1, Disintegrin and metalloproteinase domain-containing protein 10; experiment: Binding affinity to ADAM10
Interstitial collagenase = biological target: T2, Interstitial collagenase (Homo sapiens, UniProt P03956); experiment: Binding affinity to MMP1
T2 sequence (P03956 whole entry): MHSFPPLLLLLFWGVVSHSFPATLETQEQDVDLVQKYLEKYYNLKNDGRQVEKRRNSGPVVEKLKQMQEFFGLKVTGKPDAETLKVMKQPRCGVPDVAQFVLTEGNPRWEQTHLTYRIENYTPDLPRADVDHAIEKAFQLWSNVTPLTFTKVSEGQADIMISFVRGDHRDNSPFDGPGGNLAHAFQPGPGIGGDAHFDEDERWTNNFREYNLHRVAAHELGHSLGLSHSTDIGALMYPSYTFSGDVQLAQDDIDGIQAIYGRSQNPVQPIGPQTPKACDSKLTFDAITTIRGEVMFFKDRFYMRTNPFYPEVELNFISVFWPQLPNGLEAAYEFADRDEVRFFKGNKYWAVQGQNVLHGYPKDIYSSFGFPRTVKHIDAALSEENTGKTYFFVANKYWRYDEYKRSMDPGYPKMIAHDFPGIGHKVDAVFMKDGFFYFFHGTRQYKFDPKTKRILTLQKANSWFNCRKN

[3] = biological target: 72 kDa type IV collagenase (Homo sapiens, UniProt P08253); experiment: Binding affinity to MMP2
[4] = biological target: Matrix metalloproteinase-9 (Homo sapiens, UniProt P14780); experiment: Binding affinity to MMP9
Stromelysin-1 = Stromelysin-1 (Homo sapiens, UniProt P08254); experiment: Binding affinity to MMP3
[5] = Selectivity for ADAM10 over MMP2
[6] = Selectivity for ADAM10 over MMP9
[7] = Selectivity for ADAM10 over MMP3
[8] = biological target: T3, Disintegrin and metalloproteinase domain-containing protein 10 (Homo sapiens) (UniProt O14672); experiment: as §1; type: cell-based; conditions: BT-474
T3 sequence (whole entry): T1 sequence (O14672 whole entry)

[9] = Selectivity for ADAM10 over MMP1
Plasma = experiment: Protein binding in human plasma assessed as unbound fraction; type: ADME, cell-free
[10] = AUC (0 to 24 hrs) in mouse at 10 mg/kg, po; type: ADME, organism-based; design: time < 24 hr, dose 10 mg/kg, route oral; conditions: plasma
[11] = Cmax in mouse at 10 mg/kg, po; type: ADME, organism-based; design: dose 10 mg/kg, route oral; conditions: in vivo
[12] = Half life in mouse; type: ADME, organism-based; conditions: in vivo

Chain of 72 kDa type IV collagenase (P08253 whole entry): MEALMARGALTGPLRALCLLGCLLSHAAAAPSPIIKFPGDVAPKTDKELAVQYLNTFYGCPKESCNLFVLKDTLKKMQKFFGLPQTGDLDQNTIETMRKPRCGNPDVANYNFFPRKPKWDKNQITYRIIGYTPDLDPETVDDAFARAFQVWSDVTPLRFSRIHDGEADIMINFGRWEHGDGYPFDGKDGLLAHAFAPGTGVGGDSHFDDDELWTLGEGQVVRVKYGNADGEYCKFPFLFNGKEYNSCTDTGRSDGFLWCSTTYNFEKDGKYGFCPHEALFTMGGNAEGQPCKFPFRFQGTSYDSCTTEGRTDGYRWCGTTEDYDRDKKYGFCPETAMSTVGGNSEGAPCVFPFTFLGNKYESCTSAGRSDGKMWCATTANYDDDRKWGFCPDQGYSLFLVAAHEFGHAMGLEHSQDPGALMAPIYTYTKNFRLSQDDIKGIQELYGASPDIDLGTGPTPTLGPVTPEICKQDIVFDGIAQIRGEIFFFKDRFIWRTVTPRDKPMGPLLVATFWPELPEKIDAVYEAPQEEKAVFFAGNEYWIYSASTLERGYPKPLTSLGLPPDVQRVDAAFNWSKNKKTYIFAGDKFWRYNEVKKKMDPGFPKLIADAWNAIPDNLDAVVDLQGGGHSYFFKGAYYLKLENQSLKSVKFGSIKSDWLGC
Chain of Matrix metalloproteinase-9 (P14780 whole entry): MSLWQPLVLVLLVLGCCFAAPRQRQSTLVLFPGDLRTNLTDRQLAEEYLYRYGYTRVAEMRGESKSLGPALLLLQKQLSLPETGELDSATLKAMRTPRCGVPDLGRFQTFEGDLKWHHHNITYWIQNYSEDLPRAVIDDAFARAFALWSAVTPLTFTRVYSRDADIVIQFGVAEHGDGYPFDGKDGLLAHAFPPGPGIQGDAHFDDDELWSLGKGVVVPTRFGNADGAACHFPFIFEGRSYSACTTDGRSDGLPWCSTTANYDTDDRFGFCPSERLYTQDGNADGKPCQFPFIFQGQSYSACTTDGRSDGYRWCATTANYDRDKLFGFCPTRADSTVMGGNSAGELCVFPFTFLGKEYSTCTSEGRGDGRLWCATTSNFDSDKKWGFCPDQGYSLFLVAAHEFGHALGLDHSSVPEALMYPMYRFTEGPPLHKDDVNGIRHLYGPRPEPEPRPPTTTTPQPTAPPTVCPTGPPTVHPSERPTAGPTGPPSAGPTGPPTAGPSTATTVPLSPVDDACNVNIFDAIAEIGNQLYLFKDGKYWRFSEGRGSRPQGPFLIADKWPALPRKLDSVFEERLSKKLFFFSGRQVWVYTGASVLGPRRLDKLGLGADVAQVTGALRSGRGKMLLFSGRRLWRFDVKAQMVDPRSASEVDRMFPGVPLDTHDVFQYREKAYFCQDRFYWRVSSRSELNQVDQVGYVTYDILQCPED
Chain of Stromelysin-1 (P08254 whole entry): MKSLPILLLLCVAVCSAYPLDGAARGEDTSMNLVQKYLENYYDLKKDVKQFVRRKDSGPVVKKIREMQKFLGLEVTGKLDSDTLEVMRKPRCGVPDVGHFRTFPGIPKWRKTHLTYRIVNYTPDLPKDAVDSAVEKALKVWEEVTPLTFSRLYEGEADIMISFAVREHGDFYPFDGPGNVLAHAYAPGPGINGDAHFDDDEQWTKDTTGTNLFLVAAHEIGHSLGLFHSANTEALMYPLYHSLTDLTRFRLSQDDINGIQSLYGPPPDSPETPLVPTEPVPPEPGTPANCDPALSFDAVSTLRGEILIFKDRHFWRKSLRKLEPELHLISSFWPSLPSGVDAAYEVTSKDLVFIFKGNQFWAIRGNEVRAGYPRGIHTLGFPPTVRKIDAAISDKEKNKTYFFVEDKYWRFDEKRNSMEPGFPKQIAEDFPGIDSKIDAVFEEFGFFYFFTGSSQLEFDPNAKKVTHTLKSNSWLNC

Row | IC50 [1] | IC50 [2] | IC50 (Interstitial collagenase) | IC50 [3] | IC50 [4] | IC50 (Stromelysin-1) | SMILES | other results
1 | 240 nM | 33 nM | > 5000 nM | 21 nM | 190 nM |  | CCc1cccc(C2=CCN(C(=O)[C@H]3NCC4(CC4)C[C@@H]3C(=O)NO)CC2)c1 | 
2 | 42 nM | 25 nM | 1890 nM | 13 nM | 111 nM | 359 nM | Cc1cccc(C2=CCN(C(=O)[C@H]3NCC4(CC4)C[C@@H]3C(=O)NO)CC2)c1 | 
3 | 139 nM | 16 nM |  | 1390 nM |  | > 5000 nM | CC(C)c1cccc(C2CCN(C(=O)[C@H]3NCC4(CC4)C[C@@H]3C(=O)NO)CC2)c1 | 
4 | 229 nM | 73 nM | > 5000 nM | 1100 nM | 2500 nM | 5000 nM | CC(C)c1cccc(C2=CCN(C(=O)[C@H]3NCC4(CC4)C[C@@H]3C(=O)NO)CC2)c1 | Ratio IC50 [5]: > 15; Ratio IC50 [6]: 10; Ratio IC50 [7]: 2
5 |  | 1100 nM | > 5000 nM | > 5000 nM |  |  | CC(C)c1cccc(N2CCN(C(=O)[C@H]3NCC4(CC4)C[C@@H]3C(=O)NO)CC2)c1 | Activity [8]: inactive
6 | 72 nM | 40 nM | > 5000 nM | 50 nM | 160 nM | > 5000 nM | CC(=O)N1CC2(CC2)C[C@H](C(=O)NO)[C@H]1C(=O)N1CC=C(c2ccccc2)CC1 | 
7 | 42 nM | 14 nM |  | 32 nM |  |  | O=C(NO)[C@H]1CC2(CC2)CN[C@@H]1C(=O)N1CCN(c2cccc(Cl)c2)CC1 | 
8 | 13 nM |  |  |  |  |  | O=C(NO)[C@H]1CC2(CC2)CN[C@@H]1C(=O)N1CC=C(c2ccccc2)C1 | 
9 | 93 nM | 51 nM | > 5000 nM | 53 nM | 677 nM | > 5000 nM | CS(=O)(=O)N1CC2(CC2)C[C@H](C(=O)NO)[C@H]1C(=O)N1CC=C(c2ccccc2)CC1 | 
10 | 34 nM | 26 nM | > 5000 nM | 488 nM | 3050 nM | > 5000 nM | COC(=O)N1CC2(CC2)C[C@H](C(=O)NO)[C@H]1C(=O)N1CC=C(c2ccccc2)C1 | Ratio IC50 [5]: 37; Ratio IC50 [6]: 40; Ratio IC50 [7]: 11; Ratio IC50 [9]: 2; PPB (Plasma): 34%; AUC(0-t) at 24 h [10]: 2.8 µM·h; Cmax [11]: 3000 nM; half-life [12]: 1.8 h
11 | 26 nM | 37 nM | > 5000 nM | 106 nM | 2620 nM | 4000 nM | O=C(NO)[C@H]1CC2(CC2)CN(C(=O)OC2CCOCC2)[C@@H]1C(=O)N1CCN(c2ccccc2)CC1 | 
12 | 594 nM | 38 nM |  | < 5 nM |  |  | Cc1cc(N2CCN(C(=O)[C@H]3NCC4(CC4)C[C@@H]3C(=O)NO)CC2)ccc1C#N | 
13 |  | 99 nM |  | 5000 nM |  |  | O=C(NO)[C@H]1CC2(CC2)CN[C@@H]1C(=O)N1CC=C(c2cc(Cl)cc(Cl)c2)CC1 | Activity [8]: inactive
14 |  |  | > 5000 nM | 960 nM | > 3000 nM | > 3000 nM | O=C(NO)[C@H]1CC2(CC2)CN[C@@H]1C(=O)N1CCC(c2ccccc2)C1 (some centres undefined) | 
15 | 194 nM | 40 nM | > 5000 nM | 50 nM | 110 nM |  | COc1cccc(C2=CCN(C(=O)[C@H]3NCC4(CC4)C[C@@H]3C(=O)NO)CC2)c1 | 
16 | 902 nM | 154 nM |  | 2500 nM |  |  | CC(C)c1cc(C2=CCN(C(=O)[C@H]3NCC4(CC4)C[C@@H]3C(=O)NO)CC2)ccc1C#N | 
17 | 137 nM |  |  |  |  |  | O=C(NO)[C@H]1CC2(CC2)CN[C@@H]1C(=O)N1CCC(c2ccccc2)CC1 | 
18 | 431 nM | 34 nM | > 5000 nM | 37 nM | 309 nM | 1670 nM | O=C(NO)[C@H]1CC2(CC2)CN(C(=O)OCc2ccccc2)[C@@H]1C(=O)N1CC=C(c2ccccc2)CC1 | 
19 | 289 nM | 81 nM |  | > 5000 nM |  |  | COC(=O)N1CC2(CC2)C[C@H](C(=O)NO)[C@H]1C(=O)N1CCC(c2ccccc2)C1 (some centres undefined) | 
20 | 150 nM | 19 nM | > 5000 nM | 35 nM | 451 nM | 2600 nM | CC(C)COC(=O)N1CC2(CC2)C[C@H](C(=O)NO)[C@H]1C(=O)N1CC=C(c2ccccc2)CC1 | 
21 | 169 nM | 19 nM |  | 472 nM |  |  | COC(=O)N1CC2(CC2)C[C@H](C(=O)NO)[C@H]1C(=O)N1CCC(c2ccccc2)CC1 | 
22 | 129 nM | 28 nM | > 5000 nM | 159 nM | > 5000 nM | 3500 nM | Cc1cc(C2=CCN(C(=O)[C@H]3NCC4(CC4)C[C@@H]3C(=O)NO)CC2)cc(C)c1C#N | 
23 | 45 nM | 27 nM | > 5000 nM | 86 nM | 1500 nM | > 5000 nM | CS(=O)(=O)N1CC2(CC2)C[C@H](C(=O)NO)[C@H]1C(=O)N1CCN(c2ccccc2)CC1 | 
24 | 184 nM | 187 nM | > 5000 nM | 63 nM | 1270 nM | > 1000 nM | Cc1cccc(N2CCN(C(=O)[C@H]3NCC4(CC4)C[C@@H]3C(=O)NO)CC2)c1 | 
25 | 86 nM | 85 nM | > 5000 nM | 433 nM | > 5000 nM | > 5000 nM | Cc1cc(C)cc(C2=CCN(C(=O)[C@H]3NCC4(CC4)C[C@@H]3C(=O)NO)CC2)c1 | 
26 | 689 nM | 194 nM | > 5000 nM | 391 nM | 604 nM | > 5000 nM | Cc1cccc(C2CCN(C(=O)[C@H]3NCC4(CC4)C[C@@H]3C(=O)NO)CC2)c1 | 
27 |  | 48 nM |  | 24 nM |  |  | O=C(NO)[C@H]1CC2(CC2)CN[C@@H]1C(=O)N1CC=C(c2cccc(C3CC3)c2)CC1 | 
28 | 24 nM | 15 nM | > 5000 nM | 14 nM | 916 nM | > 5000 nM | O=C(NO)[C@H]1CC2(CC2)CN[C@@H]1C(=O)N1CC=C(c2cc(F)cc(F)c2)CC1 | 
